Results on 3 compounds are retold here after PMC4457528, “Identification of Novel Small Molecule Inhibitors of Oncogenic RET Kinase” (PLoS ONE, 2015).

Molecules are shown by their SMILES. Where two headings read alike, the source gives them in different places.

Holding throughout (assay): KinomeScan kinase panel, single concentration 10 µM
Holding throughout (assay type): binding

Test [1] deals with T1, KinomeScan kinase panel (Homo sapiens, UniProt O00329).
T1 construct: purchased DiscoveRx (KinomeScan)
T1 sequence (O00329 1-1044): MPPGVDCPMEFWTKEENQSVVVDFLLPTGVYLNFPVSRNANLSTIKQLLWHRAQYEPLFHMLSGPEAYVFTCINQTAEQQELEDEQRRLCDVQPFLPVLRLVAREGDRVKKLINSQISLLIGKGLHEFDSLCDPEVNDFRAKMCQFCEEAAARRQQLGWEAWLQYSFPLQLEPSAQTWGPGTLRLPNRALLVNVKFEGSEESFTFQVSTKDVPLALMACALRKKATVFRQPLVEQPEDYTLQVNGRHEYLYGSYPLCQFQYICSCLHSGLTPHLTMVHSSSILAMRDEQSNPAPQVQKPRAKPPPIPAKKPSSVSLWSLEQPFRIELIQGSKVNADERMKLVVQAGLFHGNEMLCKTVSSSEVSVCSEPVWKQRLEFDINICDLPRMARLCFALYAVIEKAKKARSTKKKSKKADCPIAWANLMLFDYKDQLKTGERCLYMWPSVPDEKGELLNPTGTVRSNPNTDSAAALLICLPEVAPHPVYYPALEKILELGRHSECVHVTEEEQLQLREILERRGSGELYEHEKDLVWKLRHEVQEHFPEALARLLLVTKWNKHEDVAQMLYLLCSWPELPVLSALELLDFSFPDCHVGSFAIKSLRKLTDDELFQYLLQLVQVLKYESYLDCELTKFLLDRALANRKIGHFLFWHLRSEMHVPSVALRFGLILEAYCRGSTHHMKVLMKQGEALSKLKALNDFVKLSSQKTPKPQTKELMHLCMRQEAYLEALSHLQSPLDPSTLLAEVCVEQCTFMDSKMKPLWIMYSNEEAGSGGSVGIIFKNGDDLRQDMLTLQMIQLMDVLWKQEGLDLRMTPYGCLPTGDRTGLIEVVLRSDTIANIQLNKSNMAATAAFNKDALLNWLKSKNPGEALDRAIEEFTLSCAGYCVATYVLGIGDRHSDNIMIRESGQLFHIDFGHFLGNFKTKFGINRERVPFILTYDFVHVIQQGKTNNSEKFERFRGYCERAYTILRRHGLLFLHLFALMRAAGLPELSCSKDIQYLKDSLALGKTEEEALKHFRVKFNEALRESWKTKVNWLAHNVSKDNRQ
The conditions noted are these: PIK3CD, 10 µM; read-out: score (%).

Test [2] addresses T2, KinomeScan kinase panel (Homo sapiens, UniProt P08922).
T2 construct: purchased DiscoveRx (KinomeScan)
The settings on record: read-out: score (%).

Test [3] addresses T3, KinomeScan kinase panel (Homo sapiens, UniProt P29317).
T3 construct: purchased DiscoveRx (KinomeScan)
The settings on record: EPHA2, 10 µM; read-out: score (%).

Test [4] concerns the target T4, KinomeScan kinase panel (Homo sapiens, UniProt O96013).
T4 construct: purchased DiscoveRx (KinomeScan)
The settings on record: PAK4, 10 µM; read-out: score (%).

In test [5] the target is T5, KinomeScan kinase panel (Homo sapiens, UniProt P00533, L861Q).
T5 construct: purchased DiscoveRx (KinomeScan)
T5 sequence (P00533 25-1210 L861Q): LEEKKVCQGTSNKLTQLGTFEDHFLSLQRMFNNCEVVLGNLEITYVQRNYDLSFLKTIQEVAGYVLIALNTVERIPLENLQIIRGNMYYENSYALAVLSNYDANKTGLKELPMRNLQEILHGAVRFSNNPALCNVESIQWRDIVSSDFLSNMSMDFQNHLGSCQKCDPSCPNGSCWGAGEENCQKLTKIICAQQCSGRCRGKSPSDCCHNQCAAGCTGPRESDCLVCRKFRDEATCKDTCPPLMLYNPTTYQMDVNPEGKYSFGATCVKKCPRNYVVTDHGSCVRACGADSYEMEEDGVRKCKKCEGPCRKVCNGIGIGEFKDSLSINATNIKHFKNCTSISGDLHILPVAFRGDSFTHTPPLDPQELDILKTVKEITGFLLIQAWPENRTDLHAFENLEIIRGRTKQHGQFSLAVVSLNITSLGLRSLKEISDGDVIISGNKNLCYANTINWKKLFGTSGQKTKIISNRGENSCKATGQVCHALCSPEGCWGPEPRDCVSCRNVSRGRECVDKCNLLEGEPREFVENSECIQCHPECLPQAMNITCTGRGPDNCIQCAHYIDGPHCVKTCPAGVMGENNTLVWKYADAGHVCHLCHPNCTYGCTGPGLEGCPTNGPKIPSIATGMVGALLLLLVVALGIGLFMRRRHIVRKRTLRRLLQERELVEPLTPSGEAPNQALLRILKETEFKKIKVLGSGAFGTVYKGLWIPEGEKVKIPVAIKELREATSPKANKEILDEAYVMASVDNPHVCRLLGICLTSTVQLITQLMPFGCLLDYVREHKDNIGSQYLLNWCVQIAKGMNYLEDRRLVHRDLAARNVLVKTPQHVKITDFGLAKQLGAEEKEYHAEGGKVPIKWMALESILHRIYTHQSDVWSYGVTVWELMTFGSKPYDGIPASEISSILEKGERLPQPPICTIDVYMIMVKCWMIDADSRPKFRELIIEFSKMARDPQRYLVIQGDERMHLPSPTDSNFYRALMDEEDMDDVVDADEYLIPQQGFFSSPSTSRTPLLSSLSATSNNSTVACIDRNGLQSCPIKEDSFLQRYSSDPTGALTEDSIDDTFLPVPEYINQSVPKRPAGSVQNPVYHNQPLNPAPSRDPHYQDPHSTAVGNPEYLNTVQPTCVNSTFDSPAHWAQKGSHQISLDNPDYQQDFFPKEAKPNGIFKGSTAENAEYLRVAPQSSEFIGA
The conditions noted are these: EGFR(L861Q), 10 µM.

Test [6] addresses T6, KinomeScan kinase panel (Homo sapiens, UniProt Q9NRP7).
T6 construct: purchased DiscoveRx (KinomeScan)
T6 sequence (Q9NRP7 1-1315): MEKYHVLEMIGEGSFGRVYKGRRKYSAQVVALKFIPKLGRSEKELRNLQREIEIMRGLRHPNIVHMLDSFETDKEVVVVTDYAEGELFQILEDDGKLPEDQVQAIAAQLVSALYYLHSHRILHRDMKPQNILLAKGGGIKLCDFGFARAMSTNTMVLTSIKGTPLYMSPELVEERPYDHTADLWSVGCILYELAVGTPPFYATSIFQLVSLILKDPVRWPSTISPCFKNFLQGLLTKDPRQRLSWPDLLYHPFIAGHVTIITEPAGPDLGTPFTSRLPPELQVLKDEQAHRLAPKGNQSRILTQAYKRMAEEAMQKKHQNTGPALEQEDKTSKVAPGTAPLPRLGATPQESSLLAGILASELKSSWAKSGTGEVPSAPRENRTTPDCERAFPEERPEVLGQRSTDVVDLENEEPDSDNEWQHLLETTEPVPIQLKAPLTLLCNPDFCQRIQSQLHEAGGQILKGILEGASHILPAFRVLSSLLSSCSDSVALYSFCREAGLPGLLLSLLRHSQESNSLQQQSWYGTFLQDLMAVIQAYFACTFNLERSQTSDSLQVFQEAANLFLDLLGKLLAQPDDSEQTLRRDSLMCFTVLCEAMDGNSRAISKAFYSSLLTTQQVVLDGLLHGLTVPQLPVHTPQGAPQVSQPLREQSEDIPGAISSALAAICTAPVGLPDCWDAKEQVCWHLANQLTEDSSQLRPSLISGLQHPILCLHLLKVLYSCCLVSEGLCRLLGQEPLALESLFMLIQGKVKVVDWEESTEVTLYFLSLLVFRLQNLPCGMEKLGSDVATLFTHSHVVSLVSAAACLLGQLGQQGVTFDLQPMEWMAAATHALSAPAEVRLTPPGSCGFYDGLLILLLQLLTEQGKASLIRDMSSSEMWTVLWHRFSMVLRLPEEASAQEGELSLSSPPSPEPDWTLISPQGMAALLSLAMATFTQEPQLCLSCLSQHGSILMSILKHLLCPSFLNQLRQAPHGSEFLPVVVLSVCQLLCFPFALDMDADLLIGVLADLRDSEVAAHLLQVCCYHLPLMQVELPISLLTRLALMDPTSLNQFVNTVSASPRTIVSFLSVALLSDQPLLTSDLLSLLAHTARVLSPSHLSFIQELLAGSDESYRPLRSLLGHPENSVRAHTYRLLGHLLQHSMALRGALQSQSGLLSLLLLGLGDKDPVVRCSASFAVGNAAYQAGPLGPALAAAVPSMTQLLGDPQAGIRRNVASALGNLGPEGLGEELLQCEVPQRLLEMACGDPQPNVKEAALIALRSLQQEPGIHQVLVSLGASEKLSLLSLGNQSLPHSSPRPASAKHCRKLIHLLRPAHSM
The settings on record: read-out: score (%).

Test [7] has as its target T7, KinomeScan kinase panel (Homo sapiens, UniProt Q15375).
T7 construct: purchased DiscoveRx (KinomeScan)
The conditions noted are these: EPHA7, 10 µM; read-out: score (%).

Test [8] addresses T8, KinomeScan kinase panel (Homo sapiens, UniProt P78368).
T8 construct: purchased DiscoveRx (KinomeScan)
The settings on record: CSNK1G2, 10 µM.

The target in test [9] is T9, KinomeScan kinase panel (Homo sapiens, UniProt Q16512).
T9 construct: purchased DiscoveRx (KinomeScan)
T9 sequence (Q16512 whole entry): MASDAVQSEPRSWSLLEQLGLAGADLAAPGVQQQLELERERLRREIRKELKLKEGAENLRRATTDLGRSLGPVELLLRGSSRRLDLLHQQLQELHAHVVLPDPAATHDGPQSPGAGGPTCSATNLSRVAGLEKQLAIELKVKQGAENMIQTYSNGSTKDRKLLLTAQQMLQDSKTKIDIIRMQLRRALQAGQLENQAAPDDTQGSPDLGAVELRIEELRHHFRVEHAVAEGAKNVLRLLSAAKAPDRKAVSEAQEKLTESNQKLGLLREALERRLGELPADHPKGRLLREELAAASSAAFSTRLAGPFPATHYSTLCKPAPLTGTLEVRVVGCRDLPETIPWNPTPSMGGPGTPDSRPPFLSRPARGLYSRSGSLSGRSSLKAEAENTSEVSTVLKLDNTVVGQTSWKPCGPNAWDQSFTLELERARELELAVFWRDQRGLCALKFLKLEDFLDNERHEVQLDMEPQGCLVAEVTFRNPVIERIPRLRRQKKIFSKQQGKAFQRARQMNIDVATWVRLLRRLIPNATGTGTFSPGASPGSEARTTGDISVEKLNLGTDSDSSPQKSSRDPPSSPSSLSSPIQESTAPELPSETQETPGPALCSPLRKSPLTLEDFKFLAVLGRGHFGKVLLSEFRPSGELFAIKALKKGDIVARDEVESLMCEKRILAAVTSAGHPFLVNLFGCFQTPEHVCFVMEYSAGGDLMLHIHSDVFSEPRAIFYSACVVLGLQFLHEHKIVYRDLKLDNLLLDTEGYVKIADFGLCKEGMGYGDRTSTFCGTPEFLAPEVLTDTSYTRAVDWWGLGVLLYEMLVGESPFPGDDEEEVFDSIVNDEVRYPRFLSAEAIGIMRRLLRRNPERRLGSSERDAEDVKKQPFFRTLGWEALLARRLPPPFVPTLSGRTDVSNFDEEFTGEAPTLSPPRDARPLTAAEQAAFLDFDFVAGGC
The settings on record: PKN1, 10 µM; read-out: score (%).

T3 sequence (P29317 24-976): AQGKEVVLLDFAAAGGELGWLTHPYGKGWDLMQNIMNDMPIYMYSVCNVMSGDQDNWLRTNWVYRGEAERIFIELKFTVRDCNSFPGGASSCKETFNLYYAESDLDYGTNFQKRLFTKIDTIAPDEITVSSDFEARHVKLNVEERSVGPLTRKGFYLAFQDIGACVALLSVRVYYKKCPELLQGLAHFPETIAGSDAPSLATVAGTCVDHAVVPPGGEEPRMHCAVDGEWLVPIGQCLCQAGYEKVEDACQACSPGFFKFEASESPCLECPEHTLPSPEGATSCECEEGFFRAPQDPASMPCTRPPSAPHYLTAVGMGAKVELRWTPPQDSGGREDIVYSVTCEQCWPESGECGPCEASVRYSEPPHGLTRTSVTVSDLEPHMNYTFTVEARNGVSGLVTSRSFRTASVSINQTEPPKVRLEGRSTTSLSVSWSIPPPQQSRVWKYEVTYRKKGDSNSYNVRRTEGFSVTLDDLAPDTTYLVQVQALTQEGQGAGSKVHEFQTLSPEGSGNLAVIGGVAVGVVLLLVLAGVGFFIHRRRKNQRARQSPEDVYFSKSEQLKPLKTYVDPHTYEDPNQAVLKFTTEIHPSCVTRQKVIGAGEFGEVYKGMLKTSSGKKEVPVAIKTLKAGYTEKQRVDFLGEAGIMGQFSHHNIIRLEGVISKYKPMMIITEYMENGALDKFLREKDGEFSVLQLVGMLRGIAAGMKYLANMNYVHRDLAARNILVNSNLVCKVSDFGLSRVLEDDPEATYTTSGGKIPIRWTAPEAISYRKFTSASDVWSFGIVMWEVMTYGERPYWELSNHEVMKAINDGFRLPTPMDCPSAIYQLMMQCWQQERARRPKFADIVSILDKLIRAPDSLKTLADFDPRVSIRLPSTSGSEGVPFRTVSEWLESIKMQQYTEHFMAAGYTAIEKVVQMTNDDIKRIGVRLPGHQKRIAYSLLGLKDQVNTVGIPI
T8 sequence (P78368 whole entry): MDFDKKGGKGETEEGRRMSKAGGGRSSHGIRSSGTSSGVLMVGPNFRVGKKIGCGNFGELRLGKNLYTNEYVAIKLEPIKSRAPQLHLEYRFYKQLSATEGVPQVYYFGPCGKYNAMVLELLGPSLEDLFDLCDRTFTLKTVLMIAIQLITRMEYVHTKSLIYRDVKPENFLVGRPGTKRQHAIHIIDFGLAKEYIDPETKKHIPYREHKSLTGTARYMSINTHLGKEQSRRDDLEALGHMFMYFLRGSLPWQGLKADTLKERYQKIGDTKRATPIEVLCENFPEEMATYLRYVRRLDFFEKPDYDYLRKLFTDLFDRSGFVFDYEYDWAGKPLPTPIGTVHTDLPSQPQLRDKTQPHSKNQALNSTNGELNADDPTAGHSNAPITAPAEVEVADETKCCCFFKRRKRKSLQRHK
T4 sequence (O96013 whole entry): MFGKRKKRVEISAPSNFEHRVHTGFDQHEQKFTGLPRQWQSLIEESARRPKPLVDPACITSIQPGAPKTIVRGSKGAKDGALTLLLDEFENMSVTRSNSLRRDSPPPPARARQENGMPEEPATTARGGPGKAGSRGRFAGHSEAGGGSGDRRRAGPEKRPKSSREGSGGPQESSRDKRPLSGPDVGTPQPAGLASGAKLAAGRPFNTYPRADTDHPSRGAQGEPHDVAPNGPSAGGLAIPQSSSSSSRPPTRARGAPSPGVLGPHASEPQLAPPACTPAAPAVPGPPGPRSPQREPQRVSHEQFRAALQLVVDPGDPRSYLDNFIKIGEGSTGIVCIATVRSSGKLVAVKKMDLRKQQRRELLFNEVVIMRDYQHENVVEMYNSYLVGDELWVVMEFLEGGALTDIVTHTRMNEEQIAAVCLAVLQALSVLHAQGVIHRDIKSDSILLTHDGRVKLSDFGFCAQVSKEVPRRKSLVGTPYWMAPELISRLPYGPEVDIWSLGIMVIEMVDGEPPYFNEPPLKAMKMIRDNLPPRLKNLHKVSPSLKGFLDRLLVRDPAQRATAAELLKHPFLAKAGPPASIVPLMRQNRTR
T7 sequence (Q15375 28-998): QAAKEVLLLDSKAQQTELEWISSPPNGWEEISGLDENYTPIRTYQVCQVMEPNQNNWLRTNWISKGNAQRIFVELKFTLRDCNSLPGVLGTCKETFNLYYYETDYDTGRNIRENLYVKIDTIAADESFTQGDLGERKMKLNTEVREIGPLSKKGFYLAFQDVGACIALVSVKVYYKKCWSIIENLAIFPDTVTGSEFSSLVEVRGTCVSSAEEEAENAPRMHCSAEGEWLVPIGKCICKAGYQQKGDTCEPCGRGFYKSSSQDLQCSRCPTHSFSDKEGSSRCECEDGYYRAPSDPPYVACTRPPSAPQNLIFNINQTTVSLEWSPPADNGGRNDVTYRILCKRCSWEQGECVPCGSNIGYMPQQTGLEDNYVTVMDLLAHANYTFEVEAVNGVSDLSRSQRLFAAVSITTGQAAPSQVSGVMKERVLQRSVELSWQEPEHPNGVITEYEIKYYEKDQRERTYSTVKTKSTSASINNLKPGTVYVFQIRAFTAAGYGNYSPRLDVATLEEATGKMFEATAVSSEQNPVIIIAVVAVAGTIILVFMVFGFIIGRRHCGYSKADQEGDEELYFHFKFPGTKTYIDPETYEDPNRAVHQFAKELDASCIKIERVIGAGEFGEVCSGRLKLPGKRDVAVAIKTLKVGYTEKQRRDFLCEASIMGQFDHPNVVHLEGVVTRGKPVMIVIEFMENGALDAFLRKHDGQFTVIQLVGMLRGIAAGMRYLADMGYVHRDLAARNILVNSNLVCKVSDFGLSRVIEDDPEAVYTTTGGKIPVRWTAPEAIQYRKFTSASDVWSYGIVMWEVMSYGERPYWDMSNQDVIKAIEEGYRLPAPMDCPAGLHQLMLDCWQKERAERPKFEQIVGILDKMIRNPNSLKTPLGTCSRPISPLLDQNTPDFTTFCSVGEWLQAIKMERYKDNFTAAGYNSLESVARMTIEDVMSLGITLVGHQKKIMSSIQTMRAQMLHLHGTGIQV

As for `CCN1CCN(Cc2ccc(NC(=O)c3ccc(C)c(NC(=O)c4cncc(-c5cccs5)c4)c3)cc2C(F)(F)F)CC1` [ALW-II-41-27], the remaining binding at 10 µM at KinomeScan kinase panel [1] is above 30%; on KinomeScan kinase panel [2] (ROS1, 10 µM) it was above 30%; on KinomeScan kinase panel [3] it was 0.15%; at KinomeScan kinase panel [4], above 30%; at KinomeScan kinase panel [6] (kinase STK36, 10 µM) it was 0.2%; on KinomeScan kinase panel [7] it was above 30%. Moreover, at KinomeScan kinase panel [9], the remaining binding at 10 µM was above 30%. In addition, the “score (%)” value turned out to be 0% on KinomeScan kinase panel [5] and 20% at KinomeScan kinase panel [8].

Take `CCN1CCN(Cc2ccc(NC(=O)c3ccc(C)c(/C=C/c4cnc5[nH]ccc5c4Cl)c3)cc2C(F)(F)F)CC1` [HG-6-63-01, (E)-3-(2-(4-chloro-1H-pyrrolo[2,3-b]pyridin-5-yl)vinyl)-N-(4-((4-ethylpiperazin-1-yl)methyl)-3-(trifluoromethyl)phenyl)-4-methylbenzamide]: the remaining binding at 10 µM at KinomeScan kinase panel [1] was above 30%; at KinomeScan kinase panel [2] (ROS1, 10 µM) it was above 30%; on KinomeScan kinase panel [3] it was 0.25%; at KinomeScan kinase panel [4], above 30%; on KinomeScan kinase panel [6] (STK36, 10 µM), 0.05%; on KinomeScan kinase panel [7], above 30%. Also, the remaining binding at 10 µM on KinomeScan kinase panel [9] is above 30%. The “score (%)” value on KinomeScan kinase panel [5] was 0%; at KinomeScan kinase panel [8], “nb (Hits values higher than 30% were considered negative (no binding: nb))”.

Turning to `CCN1CCN(Cc2ccc(NC(=O)c3ccc(C)c(C#Cc4cccnc4)c3)cc2C(F)(F)F)CC1` [XMD15-44], the remaining binding at 10 µM worked out at 76% on KinomeScan kinase panel [1]; 46% on KinomeScan kinase panel [2] (kinase ROS1, 10 µM); 0.4% on KinomeScan kinase panel [3]; 100% at KinomeScan kinase panel [4]; 0.4% at KinomeScan kinase panel [6] (kinase STK36, 10 µM); 0.55% at KinomeScan kinase panel [7]. For the same compound, the remaining binding at 10 µM on KinomeScan kinase panel [9] is 85%. Further, the “score (%)” value on KinomeScan kinase panel [5] is recorded as 0.2%; at KinomeScan kinase panel [8], “nb (Hits values higher than 30% were considered negative (no binding: nb))”.
